# Assay results published in PubChem BioAssay (NCI).
#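 Grown in 96-well plates, cells were treated for 48 hours with each compound at five concentrations. Insufficient inhibition: endpoint recorded as highest concentration tested. GI50 is the concentration that inhibits growth by half. At the TGI there is no net growth.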
# What was measured:
# Assay in all cases: growth of human tumour cells (NCI), 48 h
# SK-MEL-5 melanoma = test system: SK-MEL-5 melanoma
# HS 578T breast = test system: HS 578T breast
# SNB-75 CNS = test system: SNB-75 CNS
# NCI-H460 lung = test system: NCI-H460 lung
# OVCAR-4 ovarian = test system: OVCAR-4 ovarian
# HOP-62 NSCLC = test system: HOP-62 NSCLC
# PC-3 prostate = test system: PC-3 prostate
# EKVX NSCLC = test system: EKVX NSCLC
# HL-60(TB) leukemia = test system: HL-60(TB) leukemia
# K-562 leukemia = test system: K-562 leukemia
SMILES,TGI (SK-MEL-5 melanoma),TGI (HS 578T breast),TGI (SNB-75 CNS),TGI (NCI-H460 lung),TGI (OVCAR-4 ovarian),TGI (HOP-62 NSCLC),TGI (PC-3 prostate),TGI (EKVX NSCLC),TGI (HL-60(TB) leukemia),TGI (K-562 leukemia),GI50 (SK-MEL-5 melanoma),GI50 (HS 578T breast),GI50 (SNB-75 CNS),GI50 (NCI-H460 lung),GI50 (OVCAR-4 ovarian),GI50 (HOP-62 NSCLC),GI50 (PC-3 prostate),GI50 (EKVX NSCLC),GI50 (HL-60(TB) leukemia),GI50 (K-562 leukemia)
N#Cc1ccc(-c2nc(C#N)c(N)o2)cc1,> 10 µM,> 10 µM,> 10 µM,> 10 µM,> 10 µM,> 10 µM,> 10 µM,> 10 µM,> 10 µM,> 10 µM,,,,,,,,,,
COc1ccc(Cl)cc1Nc1nc(C(F)(F)F)ccc1C(=O)NN,> 20.4 µM,> 100 µM,> 100 µM,> 100 µM,> 100 µM,> 75.4 µM,> 100 µM,> 100 µM,18.6 µM,> 100 µM,5.8 µM,12.3 µM,16.6 µM,23 µM,3.21 µM,5.78 µM,2.84 µM,2.93 µM,2.75 µM,3.35 µM
NS(=O)(=O)c1ccc(N2Cc3cc(Cl)ccc3OC3=C2C(=O)N(CC2CCCCC2)C3=O)cc1,3.25 µM,6.88 µM,2.13 µM,4.04 µM,2.46 µM,3.39 µM,2.09 µM,2.91 µM,0.828 µM,0.736 µM,1.77 µM,2.01 µM,0.784 µM,1.72 µM,0.897 µM,1.73 µM,0.519 µM,1.47 µM,0.283 µM,0.27 µM
N#CC(C#N)SCc1ccccc1,> 85.6 µM,98.3 µM,> 96 µM,> 41.6 µM,> 100 µM,> 100 µM,> 100 µM,> 100 µM,14.7 µM,,,,,,,,,,,
CC1=C(C(=O)NC2CCCCC2)CC(C(=O)NC2CCCCC2)=C(C)N1,> 100 µM,> 100 µM,64.9 µM,> 100 µM,> 100 µM,> 100 µM,> 100 µM,> 100 µM,> 100 µM,> 100 µM,,,,,,,,,,
Nc1cc(N)c2nc(-c3ccccc3)c(Oc3ccc(F)cc3)nc2c1,31.8 µM,53.7 µM,49.4 µM,> 100 µM,35.2 µM,49.5 µM,46.3 µM,33.7 µM,64.8 µM,> 100 µM,12.2 µM,19.8 µM,23.5 µM,39.6 µM,8.32 µM,21.5 µM,7.27 µM,14.6 µM,18.5 µM,10.9 µM
COc1cc(Nc2ccnc(N3CCN(c4ccnc5cc(Cl)ccc45)CC3)n2)cc(OC)c1,,> 100 µM,6.81 µM,> 100 µM,> 45.1 µM,14.2 µM,> 100 µM,,> 100 µM,> 100 µM,,2.59 µM,1.95 µM,1.51 µM,0.477 µM,1.98 µM,1.4 µM,,2.58 µM,0.432 µM
COc1cc(/C=C2\CN(C)CC3=C2Nc2nc(SC)[nH]c(=O)c2C3c2cc(OC)c(OC)c(OC)c2)cc(OC)c1OC (stereo not given),11.9 µM,> 100 µM,22.6 µM,5.4 µM,21.2 µM,7.09 µM,32.4 µM,66.4 µM,9.66 µM,,2.83 µM,8.88 µM,7.36 µM,2.3 µM,4.99 µM,2.46 µM,3.63 µM,8.44 µM,2.26 µM,
Cc1cccc(NC(=O)c2sc3nc4c(cc3c2N)CCCC4)c1C,> 100 µM,> 100 µM,,> 100 µM,> 100 µM,> 100 µM,> 100 µM,> 100 µM,0.941 µM,> 100 µM,0.399 µM,0.351 µM,0.173 µM,0.369 µM,1.48 µM,0.537 µM,0.468 µM,0.708 µM,0.266 µM,0.238 µM
COC(=O)c1ccc2c(c1)C(NC(C)=O)CCc1cc(OC)c(OC)c(OC)c1-2 (stereo not given),0.216 µM,7.78 µM,15.1 µM,3.23 µM,> 100 µM,52.4 µM,> 36.9 µM,> 100 µM,0.0285 µM,28.1 µM,,,,,,,,,,
S=C(N/N=C/c1cc(Cl)cc(Cl)c1)NC12CC3CC(CC(C3)C1)C2,> 100 µM,7.41 µM,5.46 µM,> 100 µM,6.07 µM,5.93 µM,> 100 µM,,> 100 µM,> 100 µM,> 100 µM,2.16 µM,2 µM,2.66 µM,2.12 µM,2.43 µM,> 30.2 µM,,> 100 µM,> 100 µM
C/C(=N\O)c1ccc(Nc2cc(-n3nnc4ccccc43)nc3ccccc23)cc1,16.6 µM,20.4 µM,99.2 µM,> 25.4 µM,> 72.2 µM,21.4 µM,20.5 µM,> 28.9 µM,45.7 µM,> 100 µM,5.57 µM,6.29 µM,22.8 µM,4.08 µM,13.9 µM,6.14 µM,4.5 µM,6.97 µM,10.6 µM,5.32 µM
CC(O)CNC1=CC(=O)C(=O)c2ccccc21 (stereo not given),15 µM,61.8 µM,29.8 µM,30.6 µM,26 µM,32.4 µM,> 100 µM,40.2 µM,84.4 µM,> 100 µM,,,,,,,,,,
CS(=O)(=O)c1ccc(Cl)c([N+](=O)[O-])c1,25.7 µM,89.1 µM,29.5 µM,40.8 µM,3.9 µM,29.5 µM,37.5 µM,38.1 µM,47.6 µM,66.5 µM,13 µM,26 µM,15.3 µM,18.3 µM,2.02 µM,15.8 µM,19.1 µM,18.5 µM,19.7 µM,6.78 µM
